Consider one compound from patent US20140220110A1, “REMOTE LOADING OF SPARINGLY WATER-SOLUBLE DRUGS INTO LIPOSOMES” (ZONEONE PHARMA, INC., priority 2013, published 2014).

The nature of series [1]: Remote loading of carfilzomib precipitate into liposomes (drug and lipid by HPLC after purification). The format is physicochemical. To be noted: for efficiency of remote loading: 100 g drug/mol HSPC. Here is the method: Ammonium sulfate solution was prepared by dissolving ammonium sulfate solid to a final concentration of 250 mM (500 mequivilents of anion/L) no pH adjustment was made to yield a final pH of 5.6. Sodium sulfate solution (250 mM) was prepared by adding 0.35 g sodium sulfate to 10 mL deionized water.
The liposomes were formed by extrusion. Lipids were dissolved in ethanol at a concentration of 500 mM HSPC (591 mg/mL total lipid) at 65° C. and the 9 volumes of the trapping agent solution heated to 65° C. was added to the ethanol/lipid solution also at 65° C. The mixture was vortexed and transferred to a 10 mL thermostatically controlled (65° C.) Lipex Extruder. The liposomes were formed by extruding 10 times through polycarbonate membranes having 0.1 um pores. After extrusion the liposomes were cooled on ice. The transmembrane electrochemical gradient was formed by purification of the liposomes by dialysis in dialysis tubing having a molecular weight cut off of 12,000-14,000. The samples are dialyzed against 5 mM HEPES, 10% sucrose pH 6.5 (stirring at 4° C.) at volume that is 100 fold greater than the sample volume. The dialysate was changed after 2 h then 4 more times after 12 h each. The conductivity of the liposome solution was measured and was indistinguishable from the dialysis medium ˜40 μS/cm.
The lipid concentration is determined by measuring the cholesterol by HPLC using an Agilent 1100 HPLC with and Agilent Zorbax 5 um, […], Eclipse XDB-C8 column and a mobile phase of A=0.1% TFA, B=0.1% TFA/MeOH with an isocratic elution of 99% B. The flow rate is 1.0 mL/min, column temperature is 50° C., 10 μL injection and detection by absorbance at 205 nm. The retention time of cholesterol is 4.5 min. The liposome size is measured by dynamic light scattering.
Carfilzomib (Selleck Chemicals) was dissolved in DMSO at a concentration of 10 mg/mL. The carfilzomib was introduced to the liposomes at a carfilzomib to HSPC ratio of 100 g drug/mol HSPC (drug to total lipid ratio (wt/wt) of 0.12). The liposomes were diluted with 50 mM citrate, 10% sucrose pH 4.0 to increase the volume to a point where after addition of the drug the final DMSO concentration is 2%. The carfilzomib/DMSO was added to the diluted liposomes, which were mixed at room temperature then transferred to a 65° C. bath and swirled every 30 s for the first 3 min and then swirled every 5 min over a total heating time of 30 min. All samples were very cloudy when the drug was added and all became clear (same as liposomes with no drug added) after 15 min. After heating for 30 min all samples were placed on ice for 15 min. The loaded liposomes were vortexed and 100 μL of sample was kept as the “before column” and the rest transferred to microcentrifuge tubes and spun at 10,000 RPM for 5 min. The supernatants were purified on a Sephadex G25 column collected and analyzed by HPLC. The HPLC analysis of carfilzomib was performed on the same system as described for analysis of cholesterol. The mobile phase consists of A=0.1% TFA, B=0.1% TFA/MeOH with a gradient elution starting at 50% B and increasing to 83% B in 13 min with 7 min equilibration back to 50% B. The flow rate is 1.0 mL/min, column temperature is 30 C, 10 μl injection and detection by absorbance at 205 nm. The retention time of carfilzomib is 12.2 min. The lipid concentration is determined by analysis of the cholesterol by HPLC.

For series [2] the following is noted: unencapsulated drug; Yang et al 2011; cited from earlier work.
Setting [3] is: 250 mM ammonium sulfate liposomes, drug added at 100 g drug/mol HSPC.

The structures appear in SMILES notation.

Take `CC(C)C[C@H](NC(=O)[C@H](CCc1ccccc1)NC(=O)CN1CCOCC1)C(=O)N[C@@H](Cc1ccccc1)C(=O)N[C@@H](CC(C)C)C(=O)[C@@]1(C)CO1` [carfilzomib]: the “efficiency of remote loading” value in series [1] (10 mg/mL DMSO solution added in 5 increments over 1 min while vortexing) is given as 96.3%±1.09%. In series [1] (setting [3]), the “final drug to lipid ratio” value was 95.26±3.47 g drug/mol of HSPC and the loading efficiency is reported as 95.26±3.47%. In series [1] (control liposomes with 250 mM sodium sulfate (no gradient), drug added at 100 g drug/mol HSPC), the final drug load is on record as 33.28±0.79 g drug/mol of HSPC. For the same compound, in series [1] (input 100 g drug/mol HSPC), the “loading capacity of remote loaded liposomes over sodium sulfate liposomes” value was more than 3 fold. Further, the “efficiency of remote loading” value in series [1] (trapping agent ammonium sulfate, 10 mg/mL DMSO solution added quickly) is given as 97.0%±2.38%. The “t1/2 in the blood stream” value in series [2] is recorded as less than 20 min.
